Read-outs that look alike come from different tables or passages of the source. Ends that are not written are not given here. Peptide text beside a SMILES is read from it. * marks the point of attachment. RhodamineB = CCN(CC)c1ccc2c(-c3ccccc3C(=O)*)c3ccc(=[N+](CC)CC)cc-3oc2c1; X1 = CC[N+]1=C(C=CC=C2N(CCCCCC(=O)*)c3ccccc3C2(C)C)C(C)(C)c2ccccc21
Columns and labels:
[1] = tested on: HBEC-5i cells (in vitro BBB model); experiment: In vitro BBB translocation across HBEC-5i transwell monolayer; assay type: in vitro ADME, human; details: HBEC-5i monolayer on PET transwell 1.0 μm pores, apical to basolateral, 10 μM, 24 h, DMEM:F12 without phenol red, mean ± SD, triplicates of three independent experiments
Source text: HBEC-5i cells were allowed to grow until confluence in a gelatin-coated T-flask. Then, cells were carefully harvested with trypsin-EDTA (Gibco/Thermo Fisher, United States) and seeded 8,000 cells/well to 0.1% gelatin solution coated tissue culture inserts [transparent polyester (PET) membrane with 1.0 μm pores] for 24-well plates (BD Falcon, United States). During 8 days, the medium was changed every 2 days. After 8 days, cells were washed two times with 1× PBS and once with DMEM:F12 medium without phenol red (Gibco/Thermo Fisher, United States). Then, peptides diluted in DMEM:F12 medium without phenol red to a final concentration of 10 μM were added to the apical side of the in vitro BBB model (Figure 1). Experiments were performed on different days using independently grown cell cultures.
FIGURE 1 Scheme of an in vitro BBB transwell membrane system. Human brain endothelial cells (HBEC-5i) are cultured as monolayer on the apical side of a polyester (PET) transwell insert (1.0 μm pore size). Then, 10 μM of peptides are added to the apical side, and the translocation measured as the amount detected on the basolateral side.
The translocation of peptides labeled with different fluorophores was determined by fluorescence emission. After 24 h incubation, samples from the apical and basolateral side were collected and analyzed. Fluorescence was measured using the infinite F200 TECAN plate reader. The percentage (%) of translocation was calculated using the following equation:
(3) Translocation(%)=(Fi-Fcells/Fpeptide-FMedium)×100
Fi is the fluorescence intensity recovered, Fcells is the fluorescence intensity recovered from cells without peptide incubation, Fpeptide is the fluorescence intensity of total peptide initially added to the transwell apical side, and FMedium is the fluorescence intensity of the medium.
The translocation of unlabeled peptides was determined by the calculation of the respective area under the curve (AUC) in the reversed phase HPLC chromatograms. After 24 h incubation, samples from the apical and basolateral side were collected and analyzed by HPLC on a PerkinElmer Series 200 pump coupled to a PerkinElmer Series 200 UV/Vis Detector on a Luca C18 column (4.6 mm × 50 mm, 3 μm, Phenomenex, United States), eluting with linear gradients of HCOOH/MeCN (0.1%, v/v) into HCOOH/H2O (0.1%, v/v) over 15 min at 1 mL/min. UV detection was λ = 220 nm. The percentage (%) of translocation was calculated using the following equation:
(4) Translocation(%)=(AUCi/AUCpeptide)×100
AUCi is the AUC of peptide recovered and AUCpeptide is the AUC of total peptide initially added to the transwell apical side.

[2] = CellTiter-Blue cell viability assay, HBEC-5i; assay type: cell-based, human; details: human, HBEC-5i cells, Table 1, peptide 0.01-100 μM, mean ± SD, triplicates of three independent experiments, read-out: Cytotoxicity HBEC-5i cells IC50
Protocol: (§1) Peptides cytotoxicity against both HBEC-5i and MDA-MB-231 cells was determined using CellTiter-Blue® Cell Viability Assay, according to the manufacturer’s instructions. The assay is based on the ability of viable cells to reduce resazurin into resorufin, a highly fluorescent metabolite. […] Therefore, using this methodology is possible to distinguish between metabolic and non-metabolic cells and indirectly determine the cytotoxicity of peptides. Briefly, HBEC-5i and MDA-MB-231 cells were carefully detached from T-flasks, as described previously, and seeded 15,000/100 and 10,000/100 μL, respectively, in 96-well plates (Corning, United States) and incubated for 24 h. After medium removal, cells were washed two times with 1× PBS and 100 μL of previously diluted peptides (range between 0.01 and 100 μM) in either DMEM or DMEM:F12 medium were added to MDA-MB-231 or HBEC-5i cells, respectively. After 24 h incubation, cells were washed two times with 1× PBS, and 20 μL of CellTiter-Blue® Reagent (diluted in 100 μL of medium) was added to each well and incubated for 3 h in a humidified atmosphere of 5% CO2 at 37°C. The fluorescence intensity was measured at λ with an excitation of 560 nm and maximum emission at 590 nm using the infinite F200 TECAN plate reader. Medium and 1% Triton X-100-containing medium were used as positive controls (100% cell viability) and negative controls (0% cell viability), respectively. Cell viability (%) was determined using the following equation:
(§2) (7) CellViability=FP-FNC/FPC-FNC×100
(§3) Fp is the fluorescence intensity of peptide-treated cells, FNC is the fluorescence intensity for negative controls, and FPC is the fluorescence intensity for positive controls.
(§4) Experiments were performed on different days using independently grown cell cultures.
(§5) FIGURE 4 In vitro cytotoxicity unlabeled- and labeled-peptides. (A,B) Cytotoxicity against HBEC-5i cells. (C,D) Cytotoxicity against MDA-MB-231 cells. 1.5 × 10^4 and 1.0 × 10^4 cells of HBEC-5i and MDA-MB-231 cells, respectively, were incubated with various concentrations of peptides (range from 0.01 to 100 μM). The percentage of viability was determined using CellTiter® Blue reagent assay. […] Error bars, S.D.

HBEC-5i cells = experiment: CellTiter-Blue cell viability assay, HBEC-5i; assay type: cell-based, human; details: 24 h, peptide 0.01-100 μM, mean ± SD, triplicates of three independent experiments; for Cytotoxicity HBEC-5i cells IC10: Table 1, concentration causing 10% cell death; for Cytotoxicity HBEC-5i cells IC90: Table 1, concentration causing 90% cell death
Protocol: as §1, §2, §3, §4, §5

[3] = labeled peptide, quantified by fluorescence emission

Protocol for human RBCs: Fresh human blood was collected in EDTA tubes and centrifuged at 1,000 × g for 10 min at 4°C. The supernatant was discharged, and the pellet containing RBCs was washed three times with 1× PBS (137 mM NaCl, 2.7 mM KCl, 10 mM Na2HPO4, and 1.8 mM KH2PO4, pH 7.4) and resuspended in 1× PBS to obtain a 2.0% (v/v) suspension. Then, RBCs were added to centrifuge tubes containing two-fold serially diluted peptides to a final concentration ranging from 0.01 to 100 μM. The suspension was incubated for 24 h at 37°C with gentle stirring. After that, samples were centrifuged for 2 min at 1,000 × g. Supernatants were transferred to 96-well plates, and the hemoglobin released measured by absorbance at 570 nm in an Infinite F200 TECAN plate reader. 1× PBS with no peptides and Triton X-100 at 1 and 4% (v/v) were used as negative and positive controls, respectively. Hemolytic activity (%) was determined using the following equation:
(2) Hemolyticactivity(%)=AbsPT-AbsNC/AbsPC-AbsNC
where, AbsPT is the absorbance of treated samples, AbsNC is the absorbance from negative control, and AbsPC absorbance from positive control.
HC50 values were determined using the GraphPad Prism 7.0 software using a log(inhibitor) vs. normalized response. Experiments were performed on different days using independent blood donors.
(range from 0.01 to 100 μM). The percentage of hemolysis was determined by the absorbance of hemoglobin released into the supernatant. Melittin was included as a control peptide with hemolytic properties. The values were obtained from triplicates of three independent experiments. Error bars, S.D.

Molecule	Translocation (%) [1, 3] [%]	CC50 at 24 h [2] [µM]	Cytotoxicity HBEC-5i cells IC10 (HBEC-5i cells) [µM]	Hemolytic activity HC10 (human RBCs) [µM]	Hemolytic activity HC50 (human RBCs) [µM]	Hemolytic activity HC90 (human RBCs) [µM]	Hemolytic activity HC10 (human RBCs; pH 7.4) [µM]	Hemolytic activity HC50 (human RBCs; pH 7.4) [µM]	Hemolytic activity HC90 (human RBCs; pH 7.4) [µM]	Cytotoxicity HBEC-5i cells IC90 (HBEC-5i cells) [µM]	Translocation (%) ([1]; unlabeled peptide, quantified by HPLC (AUC, UV 220 nm))
CC[C@H](C)[C@H](NC(=O)CNC(=O)[C@H](C)NC(=O)CCCCCN1C(=CC=CC2=[N+](CC)c3ccccc3C2(C)C)C(C)(C)c2ccccc21)C(=O)N[C@@H](CC(C)C)C(=O)N[C@@H](CCCCN)C(=O)N[C@@H](CCCNC(=N)N)C(=O)N[C@@H](Cc1c[nH]c2ccccc12)C(N)=O [Q570-PepH3] (X1-AGILKRW-NH2)	59.60 ± 2.64	> 200	>200	> 200	> 200	> 200	>200	>200	>200		
CC[C@H](C)[C@H](NC(=O)CNC(=O)[C@H](C)NC(=O)c1ccccc1-c1c2ccc(=[N+](CC)CC)cc-2oc2cc(N(CC)CC)ccc12)C(=O)N[C@@H](CC(C)C)C(=O)N[C@@H](CCCCN)C(=O)N[C@@H](CCCNC(=N)N)C(=O)N[C@@H](Cc1c[nH]c2ccccc12)C(N)=O [RhB-PepH3] (RhodamineB-AGILKRW-NH2)	51.57 ± 4.81	> 200	>200	9.208 ± 1.564	128.3 ± 6.596	> 200	9.208	128.3	>200	>200	
SGTQEEY-NH2 [PepNeg]		> 200	>200				>200	>200	>200	>200	50.16 ± 3.13

— publication PMC7509492, “To What Extent Do Fluorophores Bias the Biological Activity of Peptides? A Practical Approach Using Membrane-Active Peptides as Models” (Frontiers in Bioengineering and Biotechnology, 2020)
